No end group written: not given here.
Key:
HBEC3-KT cells [1] = assay: Clonogenic cell viability after IR, HBEC3-KT cells; format: cell-based, Human; settings: varying IR doses, 7–10 days recovery, three independent experiments
Experimental: H1299, CRL5889 and H460 cells were cultured in Roswell Park Memorial Institute (RPMI) 1640 medium (Life Technologies) containing 10% foetal bovine serum (Thermo Fisher Scientific). Human bronchial epithelial cells (HBEC3-KT) were maintained in keratinocyte serum-free medium supplemented with epidermal growth factor and bovine pituitary extract (Life Technologies). The histology features and origin of all cell lines used have been previously described. Cell lines were authenticated using STR profiling. Cells were grown in a humidified incubator at 37 °C/5% CO2 atmosphere. All cell lines were verified to be free of mycoplasma contamination.
Irradiations were done at room temperature using a ^137Cs source (Gammacell 40 Exactor [MDS Nordion]; dose rate 1.1 Gy/min). Phalloidin-Atto 488 was purchased from Sigma-Aldrich and Hoechst 33342 was purchased from Thermo Fisher Scientific.
For siRNA transfections, cells were transfected with negative control or COMMD4 siRNA #2 (CCAUGUCCCUCUCAGCAGA[dT][dT] MISSION® siRNA, Sigma-Aldrich) using RNAiMax (Life Technologies) as previously described and samples were analysed 48 to 72 h post-transfection. […] Cells were mock-transfected, or transfected with FLAG-H2BWT/FLAG-H2BMUT1, or COMMD4-FLAG/A70K with FuGENE® HD (Promega) using the manufacturer’s protocol and analysed 24 h post-transfection. […]

HBEC3-KT cells [2] = assay: Immunofluorescence γH2AX and MDC1 foci, HBEC3-KT cells; format: cell-based, Human; settings: 6 Gy IR, 50 cells per condition, three independent experiments
Experimental: (§1) For siRNA transfections, cells were transfected with negative control or COMMD4 siRNA #2 (CCAUGUCCCUCUCAGCAGA[dT][dT] MISSION® siRNA, Sigma-Aldrich) using RNAiMax (Life Technologies) as previously described and samples were analysed 48 to 72 h post-transfection. The H2B wild-type (FLAG-H2BWT) and mutant (FLAG-H2BMUT1) expression constructs were generated with the 10-amino acid peptide and the corresponding mutant cloned into the expression vector pCDNA3.1/(+)-N-DYK containing an N-terminal FLAG tag and a C-terminal nuclear localisation signal (AAKRVKLDS) (GenScript). A70K FLAG-COMMD4 expression construct was generated by mutating the corresponding COMMD4-FLAG construct to harbour an A70K mutation (GenScript). Cells were mock-transfected, or transfected with FLAG-H2BWT/FLAG-H2BMUT1, or COMMD4-FLAG/A70K with FuGENE® HD (Promega) using the manufacturer’s protocol and analysed 24 h post-transfection.
NSCLC and control cells transfected with siRNA or H2B plasmids were grown in optical glass bottom 96-well plates (Cellvis). Post-treatment, cells were pre-extracted with ice-cold extraction buffer (20 mM HEPES (pH 8), 20 mM NaCl, 5 mM MgCl2, 1 mM ATP, 0.5% NP40), to remove the soluble proteins and processed as previous. […] Images were analysed using the InCarta Image Analysis software (GE Healthcare Life Sciences) where a minimum of 50 nuclei were quantified per experiment. […]

HBEC3-KT cells [3] = assay: Annexin V-FITC / propidium iodide apoptosis, HBEC3-KT cells; format: cell-based, Human; settings: flow cytometry, three independent experiments
Experimental: as §1, with “A70K FLAG-COMMD4 expression construct was generated by mutating the corresponding COMMD4-FLAG construct to harbour an A70K mutation (GenScript).” left out
The Annexin V-FITC apoptosis kit (United Bioresearch, ALX-850-020-K101, Enzo Life Sciences, Farmingdale, NY, USA) was used to measure viable and apoptotic cells, as previously described. […] CytExpert 2.0 software was used for data acquisition and analysed using the FlowJo v10 software.
Fig. 5 Induction of mitotic catastrophe and apoptosis in NSCLC cells. a Emerin and phalloidin staining respectively in three NSCLC and control HBEC3-KT cells. […] Asterix (*) denotes *P < 0.05 and ** P < 0.005 from 100 cells counted. […] The live cells were stained with Annexin V-FITC and propidium iodide and analysed by flow cytometer. […]

COMMD4 = assay: FLAG pull-down in control and COMMD4 siRNA depleted cells; format: binding; settings: overexpressed FLAG-H2B after control or COMMD4 siRNA
Experimental: as §1
Co-immunoprecipitations were performed as previously summarised, using ice-cold NP40 buffer. Assays for co-immunoprecipitations were performed at 4 °C from HEK293T, transiently expressing the FLAG-H2B WT or MUT plasmid. Proteins were captured using anti-FLAG M2 Dynabeads (ThermoFisher) and washed three times in NP40 buffer prior to analysis.
To support predicted models, we next designed peptides to perform mapping. […]

## FLAG-H2BWT: 10-amino acid peptide cloned into expression vector containing an N-terminal FLAG tag and a C-terminal nuclear localisation signal ({FLAG}-SFVNDIFERIAAKRVKLDS)
HBEC3-KT cells [1]
  sensitivity to ionising radiation (clonogenic viability): neither hypersensitive to IR
HBEC3-KT cells [2]
  γH2AX and MDC1 (DNA repair) foci: exhibited increased DNA repair foci
HBEC3-KT cells [3]
  induction of apoptosis: no significant induction of apoptosis
COMMD4
  binding to COMMD4 in control or COMMD4 siRNA-depleted cells: binding to COMMD4 was only possible in control siRNA-depleted cells

From PMC10703884, “Targeting the COMMD4–H2B protein complex in lung cancer” (British Journal of Cancer, 2023)
